Experimental data reported in PMC8437281 (PLoS ONE, 2021).
Where “and” joins values, the source holds several entries; their conditions need not be identical. Equal values may be shown once. Read-outs that look alike come from different tables or passages of the source. Where no end group is shown, it is not given here.

Legend:
C. difficile 630 [1] = assay: microbe, parasite or virus in culture; settings: Clostridioides difficile, 630, 24 h
C. difficile 630 [2] = settings: C. difficile 630, BHI broth, 24 h, 37°C, anaerobic, OD 600 nm; triplicate
C. difficile 630 [3] = settings: lowest concentration killing ≥99.9%, after 24 h incubation plated on BHI agar, 37°C, anaerobic, triplicate

Compound	MIC (C. difficile 630 [1])	MIC (C. difficile 630 [2])	Minimum bactericidal concentration (MBC) (C. difficile 630 [3])	Reduction of viability of Caco-2 cells (Caco-2 cells; Caco-2)	Viability of Caco-2 cells (Caco-2 cells; Caco-2, 33.94 µM)
CN[C@H](CC(C)C)C(=O)N[C@H]1C(=O)N[C@@H](CC(N)=O)C(=O)N[C@H]2C(=O)N[C@H]3C(=O)N[C@H](C(=O)N[C@H](C(=O)O)c4cc(O)cc(O)c4-c4cc3ccc4O)[C@H](O)c3ccc(c(Cl)c3)Oc3cc2cc(c3O[C@@H]2O[C@H](CO)[C@@H](O)[C@H](O)[C@H]2O[C@H]2C[C@](C)(N)[C@H](O)[C@H](C)O2)Oc2ccc(cc2Cl)[C@H]1O [Vancomycin]	0.488 µg/mL and 0.34 µM	–	–	–	–
KWKLFKKIGAVLKVL-NH2 [CM]	–	2.21 µM	2.21 µM	–	–
KWKLFKKIGAVLKVLA-NH2 [CM-A]	–	1.06 µM	4.24 µM	11%	40%
